Results published in BigSolDB 2.1.

CC(=O)N[C@@H](CC(C)C)C(=O)O
solubility (mole fraction)
Conditions | 283.15 K | 288.15 K | 293.15 K | 298.15 K | 303.15 K | 308.15 K | 313.15 K | 318.15 K | 323.15 K
in acetone | 0.00363 | 0.00434 | 0.00525 | 0.0062 | 0.00734 | 0.00886 | 0.0106 | 0.0124 | 0.0146
in acetonitrile | 0.000712 | 0.000811 | 0.00114 | 0.00141 | 0.00163 | 0.00198 | 0.00249 | 0.00295 | 0.00335
in ethanol | 0.0243 | 0.0278 | 0.0314 | 0.0353 | 0.0396 | 0.0456 | 0.0504 | 0.0567 | 0.0624
in ethyl acetate | 0.00103 | 0.00127 | 0.0015 | 0.00178 | 0.00207 | 0.00243 | 0.0028 | 0.00328 | 0.00374
in isobutanol | 0.0148 | 0.0176 | 0.0206 | 0.0242 | 0.0283 | 0.0328 | 0.0375 | 0.0425 | 0.0478
in isopropanol | 0.0177 | 0.0206 | 0.0238 | 0.0274 | 0.0313 | 0.0354 | 0.0405 | 0.0464 | 0.0526
in methanol | 0.0309 | 0.0357 | 0.0403 | 0.0456 | 0.0514 | 0.0589 | 0.066 | 0.0729 | 0.0824
in methyl acetate | 0.00106 | 0.00134 | 0.00159 | 0.00191 | 0.00223 | 0.00259 | 0.0033 | 0.00396 | 0.00453
in n-butanol | 0.017 | 0.0192 | 0.0221 | 0.0255 | 0.0291 | 0.0331 | 0.0379 | 0.0429 | 0.0489
in n-propanol | 0.0196 | 0.0223 | 0.0251 | 0.0286 | 0.0329 | 0.0376 | 0.0424 | 0.0478 | 0.0541
in n-propyl acetate | 0.00087 | 0.00107 | 0.00126 | 0.00149 | 0.00177 | 0.00211 | 0.00249 | 0.003 | 0.00357
in sec-butanol | 0.0177 | 0.0207 | 0.0241 | 0.0279 | 0.0325 | 0.037 | 0.042 | 0.0473 | 0.0541
